From patent US7348025B2, “Small particle liposome aerosols for delivery of anticancer drugs” (priority 1999, dated 2008)
Where two headings read alike, the source gives them in different places.

Columns and labels:
[1] = Tissue distribution of CPT after inhalation of CPT liposome aerosol; format: in vivo, Mouse; settings: Mouse, inhaled in liposome aerosol (30 min), 16.2 μg/kg (486 ng/mouse)
Procedure: The final suspension was clear. If precipitation occurred, it was reheated to 50-60° C. The preparation was frozen in liquid nitrogen and lyophilized overnight. For use the material was dissolved in sterile water to the appropriate drug concentration, not exceeding 1.0 mg/ml for either drug. The efficiency of incorporation of drug in the liposomes was examined qualitatively by microscopic examination under polarized light. Unincorporated drug was seen as bi-refringent crystals. The efficiency of incorporation was examined by centrifugation of aqueous suspensions of liposomes on Percoll™ gradients. One-tenth ml of suspension was layered over 2 ml of gradient and centrifuged at 2000 rpm for 25-30 minutes. Liposomes layer at the water-Percoll interface, while unincorporated drug was deposited at the bottom of the tube. Many other lipids may be substituted for DLPC in the formulation and use of liposomes for delivery of drugs by aerosol (26).
The mobile phase was 30% acetonitrile and 70% of 0.1% glacial acetic acid. CPT was detected using the Waters 470 scanning fluorescence detector set to an excitation wavelength of 370 nm and an emission wavelength of 440 nm. […] The data were analyzed with the Waters Millenium software.
The deposited dose was calculated to be 486 ng per mouse. The mean concentrations in lungs and liver were similar with smaller concentrations in the other sites examined. […] Drug was cleared promptly from the lungs so that 15 minutes after stopping nebulization only negligible amounts of drug were present in the lungs. Liver, kidney and spleen had substantial amounts of drug initially which gradually diminished through the one hour of study. […] These studies indicate substantial immediate deposition of drug in the lungs with rapid clearance to the viscera. The amount of drug contributed by absorption from swallowed drug is uncertain.

[2] = tested on: human colon carcinoma xenografts (Squires); assay: Growth of human colon carcinoma xenografts in nude mice under liposome aerosol; format: in vivo
[3] = Phase I clinical trial: 9NC plasma pharmacokinetics; format: in vivo, human
Procedure: The purpose of quantitation of 9NC from plasma and bronchoalveolar fluids was to determine systemic absorption from the alveolar-capillary exchange surface. Plasma concentrations of total 9NC and the lactone form were measured. For patients who volunteered for pharmacokinetic studies, blood was obtained at various time pints from the start of the aerosol treatment depending on the cohort. For cohort 1 used in the feasibility study blood was obtained at the end of the first week of treatment. Samples were taken at 0, 0.5, 1, 1.25, 1.5, 2, 3, 5, 7, and 24 hours from the start of the 1-hr aerosol exposure. For all other cohorts, samples were obtained at 0, 2, 5, 8, and 24 hours on days 1 and 5 of weeks 1, 4 and 8 where appropriate. Quantitation was performed either by LC/MS, for cohorts 1 and 2, or by HPLC analysis, for cohorts 3 to 6. 9NC plasma concentrations were calculated from the ratio of 9 NC to CPT as internal standard. Extraction of 9NC and its lactone form was performed using Waters C18 Sep-Pak Light cartridges immediately after separating the plasma by a method similar to that previously described (12). Minimal level of detection of 9NC/ml of plasma was 0.5 ng by LC/MS and 1.0 ng by HPLC.

[4] = Phase I clinical trial: 9NC in bronchoalveolar lavage fluid or bronchial aspirate; format: in vivo, human
Procedure: Bronchoscopy was performed by a pulmonologist to obtain either bronchoalveolar lavage (BAL) fluid or bronchial aspirate for quantitation of 9NC. A BAL of the right middle lobe was performed once on volunteering patients at various times after the completion of treatment to study the amount of 9NC retained over time. Concentration of total 9NC in the BAL fluid was corrected for dilution by determining the ration of BUN in the lavage and in a plasma sample taken at the same time (13).

[5] = cited from earlier work; for T1/2: Human; for Blood or plasma concentration / Time of maximum concentration: in vivo, po
[6] = cited from earlier work
[7] = cited from earlier work; remark: listed apart in the source
[8] = human, in vivo, po; cited from earlier work
[9] = cohort 1 (0.26 mg/m^2), plasma, DLPC-9NC aerosol

## CC[C@@]1(O)C(=O)OCc2c1cc1n(c2=O)Cc2cc3c([N+](=O)[O-])cccc3nc2-1 [9-NC, 9-nitro-camptothecin]
[1]
  Blood or plasma concentration: 13.9 ng/mL
[2]; 77 then 153 then 307 μg/kg per day versus 77 μg/kg throughout, differences not statistically significant
  Increase in tumor size, escalated-dose group versus 77 μg/kg group: slightly less increase in tumor size
[2]; day 28, P<0.007, Student t test, 2 tailed
  Rate of tumor growth versus controls: reduced rate of tumor growth
[2]; high dose group (up to 307 μg/kg per day)
  Emaciation of treated mice: suggesting drug toxicity
[3]; cohort 1 (0.26 mg/m^2), 5 patients, 1-hour DLPC-9NC aerosol, at 2 hr
  Range of peak plasma concentration of total 9NC: 13.6 to 58.0 ng/mL
[3]; cohort 1 (0.26 mg/m^2), 5 patients, 1-hour DLPC-9NC aerosol, at 2 hr from start, end of first week
  Mean (±SD) peak plasma concentration of total 9NC: 37.7 ± 20.2 ng/mL
[3]; [9]
  T1/2α, mean (±SD): 1.9 ± 1.4 h
  T1/2β, mean (±SD): 16.4 ± 10.5 h
[3]; human, in vivo
  Peak plasma levels in women compared with men: higher
  Time for which total 9NC plasma concentrations continued to increase: 2 to 3 h
[4]; Subject 1, cycle 1, day 3, 2.1 hr from start of aerosol
  9NC in plasma taken at the same time as BAL: 43.2 ng/mL
[4]; Subject 1, cycle 1, day 3, 2.1 hr from start of aerosol, cohort 1, 0.26 mg/m^2
  9NC in BAL fluid: 8.2 ng/mL
[4]; Subject 3, cycle 4, day 3, 4.8 hr from start of aerosol
  9NC in plasma taken at the same time as BAL: 10.8 ng/mL
[4]; Subject 3, cycle 4, day 3, 4.8 hr from start of aerosol, cohort 1, 0.26 mg/m^2
  9NC in BAL fluid: 4.3 ng/mL
[4]; Subject 4, cycle 2, day 4, 3.5 hr from start of aerosol
  9NC in plasma taken at the same time as BAL: 34.2 ng/mL
[4]; Subject 4, cycle 2, day 4, 3.5 hr from start of aerosol, cohort 1, 0.26 mg/m^2
  9NC in BAL fluid: 25.8 ng/mL
[4]; Subject 6, cycle 1, day 4, 1.2 hr from start of aerosol
  9NC in plasma taken at the same time as the aspirate: 36.2 ng/mL
[4]; Subject 6, cycle 1, day 4, 1.2 hr from start of aerosol, cohort 1, 0.26 mg/m^2
  9NC in lung aspirate: 60.7 ng/mL
[5]; single oral dose 0.1 mg/kg (7 mg/dose)
  T1/2: (T1/2 = 2.5 h)
[5]; single oral dose 1.0 mg/kg (70 mg/dose)
  T1/2: (T1/2 = 4.9 h)
[5]; 0.1 mg/kg
  Blood or plasma concentration: 483 ng/mL
  Time of maximum concentration: 3.4 h
[5]; 1 mg/kg
  Blood or plasma concentration: 1247 ng/mL
  Time of maximum concentration: 5.3 h
[6]; Dog, single oral dose 1.0 mg/kg (10 mg/dose)
  T1/2: (T1/2 = 6.4 h)
[6]; dog, in vivo, po, 1 mg/kg
  Blood or plasma concentration: 19.1 ng/mL
  Time of maximum concentration: 0.7 h
[7]; Mouse, single oral dose 4.1 mg/kg (0.124 mg/dose)
  T1/2: (T1/2 = 10 h)
[7]; mouse, in vivo, po, 4.1 mg/kg
  Blood or plasma concentration: 732 ng/mL
  Time of maximum concentration: 6 min
[8]
  Another side effect: chemical cystitis with hematuria
  Main toxicity profile: hematologic with anemia and neutropenia and gastrointestinal with nausea, vomiting and anorexia
